The results in this text go back to US20100190742A1, “COSMETIC/PHARMACEUTICAL COMPOSITIONS COMPRISING HYALURONIC ACID AND ADMINISTRATION THEREOF FOR REDUCING SIGNS OF AGING” (L'OREAL, priority 2007, published 2010).

SMILES strings stand for the structures.

This test concerns CD44. As to the kind of experiment: Expression of CD44 on cultured normal human skin explants, indirect immunoperoxidase histochemistry. It is filed as cell-based. Particulars: for Histochemical analysis of the CD44 receptor (semiquantitative scores), Mean ± sd n = 8: skin explants cultured 14 days. On the procedure: CD44 is a transmembrane glycoprotein with a molecular weight of 80-95 kDa (CD44). The increase in the expression of this receptor at the surface of the cells of the skin improves the binding of hyaluronic acid, collagen and fibronectin. This binding makes possible in particular hydration of the dermis and epidermis.
Normal human skin fragments are obtained by plastic surgery and are deposited in culture plates. The skin explants are cultured for 14 days and compound A is added daily at 0.3 or 3 mM. At the end of culturing, the skin explants are fixed in Bouin's fluid and embedded in paraffin wax. Sections are produced and the receptor is visualized by a 3-layer indirect immunoperoxidase technique (ABC peroxidase kit, Vector Laboratories).
Histochemical analysis of the CD44 receptor (semiquantitative scores);

With `CC(O)C[C@@H]1OC[C@@H](O)[C@H](O)[C@H]1O` (stereo partly drawn) [compound A, C-β-D-xylopyranoside-2-hydroxypropane], the “activity on expression of CD44 (in words)” value reads like this: (0.3 mM) “present”; (higher concentration (3 mM)) “again encountered”. Also, the “Histochemical analysis of the CD44 receptor (semiquantitative scores), Mean ± sd n = 8” value runs as follows: (compound added daily at 0.3 mM) 2.30 ± 1.00; (compound added daily at 3.0 mM) 2.00 ± 1.10. Moreover, where the note is “skin explants treated daily for 14 days”, the “expression of CD44 (histological evaluation, in words)” value is “significant increase”.
